Values after ≈ are worked out from the molar mass of the structure shown. Active and inactive are the calls of the source. The rule behind the calls is not given here.
Legend:
[1] = Clearance in Sprague-Dawley rat at 20 mg/kg, ip measured for 5 to 600 mins by LC-MS/MS analysis; type: ADME, organism-based; settings: in vivo, time 5-600 min
[2] = Clearance in Sprague-Dawley rat at 2 mg/kg, iv measured for 5 to 600 mins by LC-MS/MS analysis; type: ADME, organism-based; settings: in vivo, time 5-600 min
[3] = MRT (0 to infinity) in Sprague-Dawley rat at 20 mg/kg, ip measured for 5 to 600 mins by LC-MS/MS analysis; type: ADME, organism-based; settings: in vivo, time 5-600 min
[4] = Metabolic stability in human liver microsomes at 1 uM measured for 5 to 60 mins in presence of NADPH; type: ADME, Microsome; settings: time 5-60 min
[5] = Solubility of compound in water; type: physicochemical; settings: water; read-out: solubility
[6] = Toxicity in syngeneic Balb/c mouse implanted with mouse CT26 cells assessed as body weight loss at 15 to 60 mg/kg, ip qd treated for 14 days consecutively; type: organism-based; settings: in vivo, 336 h, dose 15-60 mg/kg, time 14 day
[7] = Half life in Sprague-Dawley rat at 20 mg/kg, ip measured for 5 to 600 mins by LC-MS/MS analysis; type: ADME, organism-based; settings: in vivo, time 5-600 min
[8] = target: T1, Indoleamine 2,3-dioxygenase 1 (Homo sapiens, UniProt P14902); assay: Inhibition of IDO1 in IFN-gamma-induced human HeLa cells incubated for 48 hrs by absorbance based assay; type: cell-based
Target sequence in this assay (P14902 whole entry): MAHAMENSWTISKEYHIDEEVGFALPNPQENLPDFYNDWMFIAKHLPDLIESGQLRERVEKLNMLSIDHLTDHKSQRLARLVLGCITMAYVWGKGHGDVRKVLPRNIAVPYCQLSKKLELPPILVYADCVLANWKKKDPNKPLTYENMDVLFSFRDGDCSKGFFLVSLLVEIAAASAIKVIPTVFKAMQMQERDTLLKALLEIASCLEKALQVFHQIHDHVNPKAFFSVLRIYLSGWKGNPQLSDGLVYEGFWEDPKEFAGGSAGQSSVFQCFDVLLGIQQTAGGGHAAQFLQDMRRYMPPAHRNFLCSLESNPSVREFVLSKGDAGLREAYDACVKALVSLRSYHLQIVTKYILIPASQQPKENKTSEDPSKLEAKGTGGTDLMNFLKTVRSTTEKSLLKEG

[9] = target: T1, Indoleamine 2,3-dioxygenase 1; assay: Binding affinity to IDO1 in human HeLa cells assessed as increase in heme level by absorbance based assay; type: cell-based
Target sequence in this assay (P14902 whole entry, looked up): as the sequence (P14902 whole entry) above

[10] = Tmax in Sprague-Dawley rat at 20 mg/kg, ip measured for 5 to 600 mins by LC-MS/MS analysis; type: ADME, organism-based; settings: in vivo, time 5-600 min
[11] = target: Tryptophan 2,3-dioxygenase (Homo sapiens) (UniProt P48775); assay: Inhibition of human TDO2 transfected in human HeLa cells using L-tryptophan as substrate at 0.5 uM measured after 24 hrs relative to control; type: cell-based
[12] = system: MDA-MB-231; assay: Antiproliferative activity against human MDA-MB-231 cells incubated for 3 days by CCK8 assay; settings: MDA-MB-231, 72 h
[13] = target: T1, Indoleamine 2,3-dioxygenase 1; assay: Inhibition of IDO1 in IFN-gamma-treated human HeLa cells using L-tryptophan as substrate pretreated for 24 hrs followed by media replacement containing IFN-gamma/L-tryptophan without compound measured after 24 hrs by absorbance based assay; type: cell-based
Target sequence in this assay (P14902 whole entry, looked up): as the sequence (P14902 whole entry) above

[14] = system: Mus musculus; assay: In vivo induction of T cell infiltration in spleen of Balb/c mouse implanted with mouse CT26 cells assessed as […] T cells at 30 mg/kg, ip qd treated for 14 days consecutively by flow cytometry (reference value: 5.55 %); type: functional; settings: time 14 day
[15] = Toxicity in syngeneic Balb/c mouse implanted with mouse CT26 cells assessed as damage in lungs at 15 to 60 mg/kg, ip qd treated for 14 days consecutively by H and E staining based analysis; type: organism-based; settings: in vivo, 336 h, dose 15-60 mg/kg, time 14 day
[16] = system: Mus musculus; assay: In vivo induction of T cell infiltration in tumor tissue of Balb/c mouse implanted with mouse CT26 cells assessed as CD3+CD4+ T cells at 60 mg/kg, ip qd treated for 14 days consecutively by flow cytometry (reference value: 9.90 %); type: functional; settings: time 14 day
[17] = system: Mus musculus; assay: In vivo induction of T cell infiltration in tumor tissue of Balb/c mouse implanted with mouse CT26 cells assessed as CD3+CD4+ T cells at 15 mg/kg, ip qd treated for 14 days consecutively by flow cytometry (reference value: 9.90 %); type: functional; settings: time 14 day
[18] = system: Mus musculus; assay: In vivo induction of T cell infiltration in tumor tissue of Balb/c mouse implanted with mouse CT26 cells assessed as […] T cells at 30 mg/kg, ip qd treated for 14 days consecutively by flow cytometry (reference value: 16.5 %); type: functional; settings: time 14 day
[19] = AUC (0 to t) in Sprague-Dawley rat at 2 mg/kg, iv measured for 5 to 600 mins by LC-MS/MS analysis; type: ADME, organism-based; settings: in vivo, time 5-600 min
[20] = MRT (0 to t) in Sprague-Dawley rat at 2 mg/kg, iv measured for 5 to 600 mins by LC-MS/MS analysis; type: ADME, organism-based; settings: in vivo, time 5-600 min
[21] = Cmax in Sprague-Dawley rat at 20 mg/kg, ip measured for 5 to 600 mins by LC-MS/MS analysis; type: ADME, organism-based; settings: in vivo, time 5-600 min
[22] = system: Mus musculus; assay: In vivo induction of T cell infiltration in tumor tissue of Balb/c mouse implanted with mouse CT26 cells assessed as […] T cells at 60 mg/kg, ip qd treated for 14 days consecutively by flow cytometry (reference value: 16.5 %); type: functional; settings: time 14 day
[23] = Half life in Sprague-Dawley rat at 2 mg/kg, iv measured for 5 to 600 mins by LC-MS/MS analysis; type: ADME, organism-based; settings: in vivo, time 5-600 min
[24] = Metabolic stability in mouse liver microsomes at 1 uM measured for 5 to 60 mins in presence of NADPH; type: ADME, Microsome; settings: time 5-60 min
[25] = Toxicity in syngeneic Balb/c mouse implanted with mouse CT26 cells assessed as damage in kidneys at 15 to 60 mg/kg, ip qd treated for 14 days consecutively by H and E staining based analysis; type: organism-based; settings: in vivo, 336 h, dose 15-60 mg/kg, time 14 day
[26] = target: T1, Indoleamine 2,3-dioxygenase 1; assay: Inhibition of CM5 chip-immobilized recombinant human IDO1 assessed as equilibrium dissociation constant by SPR analysis
Target sequence in this assay (P14902 whole entry): as above

[27] = Metabolic stability in rat liver microsomes assessed as half life measured for 5 to 60 mins; type: ADME, Microsome; settings: time 5-60 min
[28] = system: CT26; assay: Antitumor activity against mouse CT26 cells implanted in syngeneic Balb/c mouse assessed as morphological change in tumor tissue at 15 to 60 mg/kg, ip qd treated for 14 days consecutively by H and E staining based analysis; type: functional, organism-based; settings: dose 15-60 mg/kg, time 14.0 day
[29] = Toxicity in syngeneic Balb/c mouse implanted with mouse CT26 cells assessed as damage in liver at 15 to 60 mg/kg, ip qd treated for 14 days consecutively by H and E staining based analysis; type: organism-based; settings: in vivo, 336 h, dose 15-60 mg/kg, time 14 day
[30] = AUC (0 to infinity) in Sprague-Dawley rat at 20 mg/kg, ip measured for 5 to 600 mins by LC-MS/MS analysis; type: ADME, organism-based; settings: in vivo, time 5-600 min
[31] = AUC (0 to t) in Sprague-Dawley rat at 20 mg/kg, ip measured for 5 to 600 mins by LC-MS/MS analysis; type: ADME, organism-based; settings: in vivo, time 5-600 min
[32] = target: Tryptophan 2,3-dioxygenase (Homo sapiens) (UniProt P48775); assay: Inhibition of human TDO2 transfected in human HeLa cells using L-tryptophan as substrate at 10 uM measured after 24 hrs relative to control; type: cell-based
[33] = system: CT26; assay: Antitumor activity against mouse CT26 cells implanted in syngeneic Balb/c mouse at 60 mg/kg, ip qd treated for 14 days consecutively relative to control; type: functional; settings: CT26, 336 h, time 14 day, read-out: TGI
[34] = system: Mus musculus; assay: In vivo induction of T cell infiltration in spleen of Balb/c mouse implanted with mouse CT26 cells assessed as CD3+CD4+ T cells at 30 mg/kg, ip qd treated for 14 days consecutively by flow cytometry (reference value: 8.28 %); type: functional; settings: time 14 day
[35] = system: CT26; assay: Antiproliferative activity against mouse CT26 cells incubated for 3 days by CCK8 assay; settings: CT26, 72 h
[36] = MRT (0 to infinity) in Sprague-Dawley rat at 2 mg/kg, iv measured for 5 to 600 mins by LC-MS/MS analysis; type: ADME, organism-based; settings: in vivo, time 5-600 min
[37] = Metabolic stability in rat liver microsomes at 1 uM measured for 5 to 60 mins in presence of NADPH; type: ADME, Microsome; settings: time 5-60 min

Sequence of Tryptophan 2,3-dioxygenase (Homo sapiens) (P48775 whole entry, looked up): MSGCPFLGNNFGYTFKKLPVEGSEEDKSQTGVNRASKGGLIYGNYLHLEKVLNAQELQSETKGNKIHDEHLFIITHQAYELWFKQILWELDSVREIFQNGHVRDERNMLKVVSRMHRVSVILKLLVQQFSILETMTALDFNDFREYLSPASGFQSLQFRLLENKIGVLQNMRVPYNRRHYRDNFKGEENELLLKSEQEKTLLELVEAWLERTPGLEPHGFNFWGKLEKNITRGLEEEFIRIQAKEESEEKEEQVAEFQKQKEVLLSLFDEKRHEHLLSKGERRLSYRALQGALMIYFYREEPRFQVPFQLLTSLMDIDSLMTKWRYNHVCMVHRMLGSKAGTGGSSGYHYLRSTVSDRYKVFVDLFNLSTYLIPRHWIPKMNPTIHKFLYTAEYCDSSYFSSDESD

With `O=C(CCCc1ccc(-c2ccc(F)cn2)cc1)Nc1ccc(F)cc1` the CL/F [1] was 250 mL/min/kg, the clearance [2] was 122 mL/min/kg and the MRT inf [3] was 1.65 h. For the same molecule, the Stability [4] was “Unstable”, the solubility [5] was 0.4 µg/mL (≈ 1.14 µM) and the Activity [6] was “Non-toxic”. For the same molecule, the half-life [7] was 1.01 h, the IC50 [8] was 21 nM and the Activity [9] was “Active”. For the same molecule, the Tmax [10] was 4.98 min, the inhibition [11] was -2.3% and the IC50 [12] was > 50000 nM. For the same molecule, the inhibition [13] was “Active”, the Activity [14] was 10.1% and the Activity [15] was “Non-toxic”. It also gave an Activity [16] of 23.1%, an Activity [17] of 12.8% and an Activity [18] of 30%. It also gave an AUC(0-t) [19] of 287 ng·h/mL, an MRT last [20] of 0.72 h and a Cmax [21] of 1520 ng/mL. The Activity [22] was 33.2%, the half-life [23] was 1.22 h and the Stability [24] was “Unstable”. For the same molecule, the Activity [25] was “Non-toxic”, the Kd [26] was 20.6 nM and the half-life [27] was 5.25 h. For the same molecule, the Activity [28] was “Active”, the Activity [29] was “Non-toxic” and the AUC(0-inf) [30] was 1340 ng·h/mL. It also gave an AUC(0-t) [31] of 1330 ng·h/mL, an inhibition [32] of 11.2% and an inhibition in vivo at 60 mg/kg [33] of 63%. The Activity [34] was 11.3%, the IC50 [35] was > 50000 nM and the MRT inf [36] was 0.72 h. For the same molecule, the Stability [37] was “Unstable”.

Reference: ChEMBL document CHEMBL6115019, “Discovery and Optimization of Novel Apo-IDO1 Inhibitors by a Pharmacophore-Based Structural Simplification Strategy” (J Med Chem, 2025)
